According to patent publication US11292773B2, “Small molecule inhibitors of BCL-2-associated death promoter (BAD) phosphorylation” (NATIONAL UNIVERSITY OF SINGAPORE, priority 2017, dated 2022):
Entries after “also recorded” stand apart in the source; their conditions may differ.

Assays:
MCF7 cells = experiment: AlamarBlue cell viability assay; format: cell-based; conditions: Homo sapiens, read-out: IC50 (antiproliferative)
From the text: We initially investigated the effect of newly synthesized small molecule compounds against MCF7 cells (ER+ MC cells) using an AlamarBlue® cell viability assay. Among the series of novel small molecule compounds, NPB was identified as an efficacious small molecule compound reducing viability of MCF7 cells compared to vehicle (DMSO) treated cells. […] We next determined the inhibitory concentration 50% (IC50) of NPB in wide-range of carcinoma cell lines including those derived from ER− mammary (BT549, MDA-MB-231), ER+ mammary (MCF7, T47D, and BT474), endometrial (Ishikawa, ECC-1, RL95-2, and AN3), ovarian (SK-OV-3, OVCAR-2, Caov-3, HEY C2, and OVCA433), hepatocellular (Hep3B, H2P, and H2M), colon (HCT116, DLD-1, and Caco-2), prostate (PC3, LNCaP, and DU145) and pancreatic (AsPC-1, BxPC-3) carcinoma. As normal cell controls, we also included immortalized mammary epithelial cells (MCF10A and MCF12A), and immortalized hepatocytes (LO2) in the panel of cell lines.

[1] = system: carcinoma cell lines (mammary, endometrial, ovarian, liver, colon, prostate, pancreatic); experiment: ApoTox-Glo Triplex assay (viability, caspase 3/7, cytotoxicity) in carcinoma cell lines; format: cell-based, human; conditions: all tested cancer cell lines
From the text: (§1) NPB was subsequently evaluated against panel of normal immortalized mammary epithelial cells (MCF10A and MCF12A), normal hepatocytes (LO2), mammary carcinoma (BT549, MDA-MB-231, MCF7, T47D, BT474), endometrial cancer (Ishikawa, Ecc1, RL95-2, AN3), ovarian cancer (SK-OV-3, OVCAR-2, Caov-3, HEY C2, Ovca433), liver cancer (Hep3B, H2P, H2M), colon cancer (HCT116, DLD-1, Caco-2), prostate cancer (PC3, LNCaP, DU145) and pancreatic cancer (AsPC-1, BxPC-3) cells. […] Using a Laplacian-modified Naïve Bayes classifier, NPB is subjected to in silico analysis which anticipates the human target of NPB as BAD protein.
(§2) Effect of NPB (5 μM) on carcinoma cell viability including, mammary, endometrial, ovarian, liver, colon, prostate, and pancreatic carcinoma cell lines. (A) Cell viability (B) caspase 3/7 activities and (C) cytotoxicity were evaluated using ApoTox-GIo™ Triplex Assay Kit as described in methodology. Statistical significance was assessed by an unpaired two-tailed Student's t-test using GraphPad Prism5. The column represents mean of triplicate determinations; bars, ±SD. **P<0.001, *P<0.05. Note: RFU, relative fluorescence unit; RLU, relative luminescence unit, #; non-transformed, immortalized epithelial cells; MB-231, MDA-MB-231. […]

[2] = system: normal hepatocytes (LO2) and immortalized mammary epithelial cells (MCF10A and MCF12A); experiment: Activity on normal immortalized cells; format: cell-based, human
From the text: as §1, §2

MCF7 xenograft = MCF7 xenograft in BALB/c-nu female mice; format: in vivo
Experimental: (A) Measurement of tumour volume in BALB/c-nu female mice as described in materials and methods. Animals (n=5 each group) were treated with vehicle, 5 mg/kg NPB or 20 mg/kg NPB, and relative tumour burden was recorded. Animal weight was measured daily for the duration of the experiment. (B) Tumours were excised after the NPB treatment regime and weighed. Representative resected tumours are shown in the right side. (C) WB of tumour tissue to determine levels of p-BAD (Ser99) and BAD. Soluble whole cell extracts were run on an SDS-PAGE and immunoblotted as described in methodology. β-ACTIN was used as an input control. The sizes of detected protein bands in kDa are shown on the left side. (D) Histological analyses of phospho-BAD, BAD, Ki67 and TUNEL staining. […] Apoptotic DNA fragmentation was detected using TUNEL Apoptosis Detection Kit (Gen Script USA Inc.) as described in methodology. Statistical significance was assessed by an unpaired two-tailed Student's t-test (P<0.05 was considered as significant) using GraphPad Prism5. The point represents mean of triplicate experiments; bars, ±SD. **P<0.001, *P<0.05.
5- to 6-week-old BALB/c-nu female mice were subcutaneously implanted with 17β-estradiol pellets (Innovative Research of America) at 0.72 mg/pellet with a 60-day release in the scruff of the neck after three days mice were injected subcutaneously with 100 μl of cell suspension (1×10^7 cells) in right flanks. Tumour growth was monitored by measuring the tumour size using callipers. About 12 days after implantation, mice were randomized and divided into three groups (each group, n=8), according to treatments administered 200 μl of NPB (dissolved in 5% DMSO, 50% PEG400 and 45% water pH 5.0) by intraperitoneal injection every day for seven days. The first group of mice was treated with vehicle, the second with 5 mg/kg dose of NPB, and the third with 20 mg/kg dose of NPB. Animal weight and tumour volumes were measured daily. After completion tumours were excised, photographed, weighed, and fixed or stored in liquid nitrogen for later analysis. Histological analysis was performed as previously described (30-32).
We examined the in vivo efficacy of NPB in a xenograft (MCF7) of MC. Randomly grouped mice with preformed tumours (volume ˜[…]) were injected intraperitoneally with vehicle or NPB at 5 mg/kg or 20 mg/kg. […] However, the tumour weight of NPB-treated animals was reduced compared to vehicle-treated mice and in a dose-dependent manner (FIG. 17B). We further analysed the effect of NPB on hBAD Ser99 phosphorylation levels in tumour tissue using WB analysis (FIG. 17C).

[3] = 5 mg/kg or 20 mg/kg intraperitoneal, daily for seven days, vs vehicle
[4] = histological analysis, vs vehicle
[5] = tumour tissue, western blot, vs control

Question: Which IC50 (MCF7 cells) does the source give for `O=C(NC1CCCC1)c1cccc(C(c2ccccc2O)N2CCN(c3cccc(Cl)c3Cl)CC2)c1` (centres unmarked) [NPB, N-cyclopentyl-3-((4-(2,3-dichlorophenyl)piperazin-1-yl)(2-hydroxyphenyl)methyl) benzamide] here?
Answer: The IC50 was 6.5 µM.

Question: What about the “apoptosis in cancer cell lines” value [1] of the same molecule?
Answer: The value was “significantly enhanced; also recorded: induce apoptotic cell death”.

Question: What about the “activity / cytotoxic effect on normal cells” value [2] of the same molecule?
Answer: Its value is “no substantial activity; also recorded: did not have cytotoxic effect”.

Question: What about the animal weight (MCF7 xenograft; [3]) of the same molecule?
Answer: Its animal weight is “not significantly different”.

Question: What about the tumour volume (MCF7 xenograft; [3]) of the same molecule?
Answer: Its tumour volume is “significant reduction”.

Question: What about the tumour weight (MCF7 xenograft; 5 mg/kg or 20 mg/kg intraperitoneal, dose-dependent, vs vehicle) of the same molecule?
Answer: Its tumour weight is “reduced”.

Question: And the “TUNEL positivity in tumours” value (MCF7 xenograft; [4])?
Answer: The value was “significantly increased”.

Question: And the “p-BAD (Ser99) in tumour specimens (histology)” value (MCF7 xenograft; [4])?
Answer: Its value is “significantly reduced”.

Question: And the “percentage of Ki67 positive cells in tumours” value (MCF7 xenograft; [4])?
Answer: The value was “significantly decreased”.

Question: And the “phosphorylation of BAD (at Ser99) in tumour tissue (WB)” value (MCF7 xenograft; [5])?
Answer: The value was “significantly inhibited”.

Question: And the “total levels of BAD protein in tumours (WB)” value (MCF7 xenograft; [5])?
Answer: The value was “No change”.
